Measurements: patent publication US20170164607A1, “METHODS OF EXTENDING THE SHELF LIFE OF SUGARCANE STEM SECTIONS AND COATED SUGARCANE STEM SECTIONS” (Syngenta Participations AG, priority 2014, published 2017)
Like-named read-outs stand apart in the source and are kept apart here.

Key:
[1] = test system: sugarcane stem sections of CP88-762; conditions: 14 days after planting
Description: Sugarcane stem sections of CP88-762 having a diameter of approximately 25-30 mm and a length of approximately 50 mm were cut and treated with a standard treatment slurry or a standard treatment slurry containing AgNO3 at a final concentration of 600 μMol of AgNO3 as described in Example 3. The AgNO3 treated and control (without AgNO3) sugarcane stem sections were then planted as is or stored for an extended period of time up to 42 days in storage containers as shown at FIG. 1 (i.e., storage containers that allow gas transfer between an interior and so exterior of the storage container) at a storage temperature of 10° C. Following storage, the AgNO3 treated and control sugarcane stem sections were planted in trays of potting soil and placed in a greenhouse as described in example 3. All sugarcane stem sections were evaluated for germination and shoot growth at 14 days after planting.

[2] = test system: sugarcane stem sections of CP88-1762
Description: Sugarcane stem sections of CP88-1762 having a diameter of approximately 25-30 mm and a length or approximately 50 mm were coated with a standard treatment slurry (designated control treatment) or treated with the standard treatment slurry which also contained AgNO3 at a concentration of 600 μMol of AgNO3 (designated as AgNO3 treatment). The AgNO3 treated and control sugarcane stem sections were then planted as is or stored for a period of time up to three weeks in storage containers as shown in FIG. 1 (i.e., storage containers that allow gas transfer between an interior and an exterior of the storage container) at storage temperatures ranging from 10° C. to 22° C. Following storage, the AgNO3 treated and control sugarcane stem sections were planted in trays of potting soil and placed in a greenhouse. The trays were watered daily to maintain moisture and the greenhouse maintained at 26/20 C maximum/minimum temperatures with 15 hours light. Growth and germination of all AgNO3 treated and control sugarcane stem sections were evaluated at 7, 14, and 21 days after removal from storage containers.

[3] = test system: sugarcane stem sections; conditions: 300, 600 and 1200 μMol AgNO3; storage up to three weeks in air-tight jars at 16° C.; biochamber boxes or potted soil trays; FIGS. 2-7
Description: Sugarcane stem sections (i.e., two varieties: CP 88-1762 and CP00-1101) having a diameter of approximately 25-30 mm and a length of approximately 50 mm were cut and coated (or left uncoated) as described in Example 1 using coating compositions having AgNO3 concentrations of 0, 300, 600 and 1200 μMol of AgNO3. The coated and control uncoated sugarcane stem sections were then planted as is or stored for a period of time up to three weeks in one gallon air-tight jars (i.e., about 20 coated sugarcane stem sections per jar) at 16° C. Following storage, the coated and control uncoated sugarcane stem sections were then germinated in either biochamber boxes or potted soil trays (i.e., 5 jars each) or both. All coated and control uncoated sugarcane stem sections were planted and evaluated as follows: germination rates were taken in the biochamber boxes at 3, 5, and 7 days after removal from the jars: germination rates were taken in the potted trays at 10, 12, and 14 days after removal from the jars.

[4] = test system: sugarcane stem sections; conditions: for Avg. Germ / Avg. Height: evaluated seven days after planting
Method: Sugarcane stem sections having a diameter of approximately […] and a length of approximately 50 mm were generated (e.g., cut) from sugarcane stalks. One set of cut sugarcane stem section were dipped into the coating compositions for a dwell time of about 60 seconds, and subsequently allowed to dry at room temperature (i.e., about 30° C. Another set of control sugarcane stem sections were not coated and remained at room temperature (i.e., about 30° C.) (i.e., identified below as “No AgNO3”). The coated and control uncoated sugarcane stem sections were then planted as is (i.e., these stem sections are identified below as “Day Zero”) or stored for a period of time up to three weeks in an air tight jar at room temperature (i.e., about 30° C.). Following storage, the coated and control uncoated sugarcane stem sections were then germinated in biochamber boxes. All coated and control uncoated sugarcane stem sections were germinated in a growth chamber and evaluated seven days after planting.

[5] = 600 μMol AgNO3 in standard treatment slurry, storage up to three weeks at 10° C. to 22° C. in gas-permeable containers, FIGS. 8-9
[6] = 200 μMol AgNO3, 2 weeks storage in air tight jar at about 30° C.
[7] = 200 μMol AgNO3, 3 weeks storage in air tight jar at about 30° C.
[8] = 400 μMol AgNO3, 2 weeks storage in air tight jar at about 30° C.
[9] = 400 μMol AgNO3, 3 weeks storage in air tight jar at about 30° C.
[10] = 600 μMol AgNO3, 2 weeks storage in air tight jar at about 30° C.
[11] = 600 μMol AgNO3, 3 weeks storage in air tight jar at about 30° C.
[12] = after a weeks of storage in an air-tight jar (3 weeks rows of Table 1)

## O=[N+]([O-])[O-].[Ag+] [AgNO3, silver nitrate]
[1]; 600 μMol AgNO3, after 6 weeks storage at 10° C., FIG. 11
  germination rate: 68%
[1]; 600 μMol AgNO3 in standard treatment slurry, throughout the 42 days of storage at 10° C., FIG. 11
  germination rates compared to control sugarcane stem sections: improved germination rates
[1]; 600 μMol AgNO3 in standard treatment slurry, throughout the 42 days of storage at 10° C., FIG. 12
  plant vitality (as measured by plant height) compared to control sugarcane stem sections: improved
[2]; 600 μMol AgNO3, 7 through 21 days storage
  stem section germination: significant enhancement
[2]; 600 μMol AgNO3, all storage periods including day 0 planting
  shoot lengths: significant enhancement
[2]; 600 μMol AgNO3, stored for 14 days at 22° C., 28 days after planting, FIG. 10
  vitality of sugarcane plants compared to plants from control stem sections: much more vitality
[2]; [5]
  germination rates compared to control sugarcane stem sections: improved germination rates
  plant vitality (as measured by plant height) compared to control sugarcane stem sections: improved
[3]
  germination rates compared to the standard slurry applied sugarcane stem sections: improved germination rates
[4]; 200 μmol concentration, 2 weeks of storage in an air-tight jar
  germination compared to the control "no AgNO3" sample: increased germination
[4]; [6]
  Avg. Germ: 83.33%
  Avg. Height: 51.38 mm
[4]; [7]
  Avg. Germ: 52.50%
  Avg. Height: 42.91 mm
[4]; [8]
  Avg. Germ: 52.38%
  Avg. Height: 39.66 mm
[4]; [9]
  Avg. Germ: 45.00%
  Avg. Height: 30.53 mm
[4]; [10]
  Avg. Germ: 61.90%
  Avg. Height: 40.79 mm
[4]; [11]
  Avg. Germ: 87.50%
  Avg. Height: 55.19 mm
[4]; [12]
  germination over the control "non-AgNO3" samples: improved germination
  plant height over the control "non-AgNO3" samples: improved
